The values below come from article PMC8067766 (International Journal of Molecular Sciences, 2021).

Where a SMILES comes first, the peptide text is derived from it.

Data set [1] addresses T1, human neutrophil elastase (Homo sapiens, UniProt P08246).
T1 construct: purchased Sigma Aldrich
T1 sequence (P08246 30-267): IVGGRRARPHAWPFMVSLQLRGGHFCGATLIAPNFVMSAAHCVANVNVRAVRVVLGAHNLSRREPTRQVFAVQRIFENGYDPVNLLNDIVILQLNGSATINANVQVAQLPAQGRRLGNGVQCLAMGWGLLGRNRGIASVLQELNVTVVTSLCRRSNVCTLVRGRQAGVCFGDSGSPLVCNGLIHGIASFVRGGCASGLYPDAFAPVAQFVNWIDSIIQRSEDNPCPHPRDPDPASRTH
The data set is described as follows: Incubation with neutrophil elastase (release of active sequence). The format is in vitro ADME. The settings on record: non-fibrillated peptide 1.0 mM, 0.1 M Tris HCl, 500 mM NaCl, 0.05% Triton X-100, 20 mM CaCl2, pH 7.5; enzyme 150 nM; 30 min, 37 °C; RP-UHPLC (PDA) and LC-MS. The method, then: An enzymatic stability study was performed using the human neutrophil elastase enzyme (Sigma Aldrich, St. Louis, MO, USA). The peptides were dissolved in a buffer (with composition: 0.1 M Tris HCl, 500 mM NaCl, 0.05% Triton X-100, 20 mM CaCl2, pH 7.5), to a final concentration 1.0 mM. The fibrils formed in the aggregation process were dissolved in PBS at pH 7.4 to a concentration of 1 mg/mL. The enzyme was added to the peptide/fibril solution to a concentration of 150 nM and incubated for 30 min (peptides) or 60 min (fibrils), at 37 °C, with agitation. A 10% aqueous TFA solution was added to the reaction mixture to stop the digestion. The progress of the reaction was monitored by RP-UHPLC with a PDA (Photo Diode Array) detector on a Kinetex C8 column (2.6 μm, 100 Å 2.6 × 100 mm, Phenomenex, Torrance, CA, USA), at a gradient of 0–50% B for 15 min, and by LC-MS.

Data set [2] is described as follows: Circular dichroism over incubation. The format is physicochemical. The settings on record: 1.0 mg/mL in PBS pH 7.4, 37 °C with agitation, up to 14 days; centrifuged clear solution, far-UV 195-250 nm. The protocol: Circular dichroism spectra were recorded on a Jasco J-815 spectropolarimeter (Jasco, Victoria, BC, Canada). Far-UV spectra (195–250 nm) were registered for all peptides dissolved in PBS pH 7.4 at a concentration of 1.0 mg/mL and incubated at 37 °C with agitation. Spectra were recorded before and after 1,2, 3, 7, 10 and 14 days of incubation. All spectra were corrected for the buffer signal. The CD spectra were recorded three times, using a 0.2 mm cell.

A short description of data set [3]: Transmission electron microscopy of fibrils. The class given is physicochemical. The conditions noted are these: 1.0 mg/mL in PBS pH 7.4, TEM, uranyl acetate stain. The protocol: (§1) All peptides were dissolved in Eppendorf Low Retention Tubes in 1.0 mL of PBS pH 7.4. The concentration of the solutions of peptides was 1.0 mg/mL. The peptides were incubated at 37 °C with constant orbital shaking. Aliquots for the evaluation of the fibrillization process were taken before incubation and after 1, 2, 3, 6, 14, and 21 days or only after 7 days, depending on the experiments.
Peptide samples (5 µL) were applied on a glow-discharged carbon-coated copper grid (400 mesh). After 1 min of adsorption, excess liquid was removed using filter paper, and the samples were stained with 2% (v/v) aqueous uranyl acetate. The samples were examined with a TECNAI SPIRIT BIO TWIN FEI (FEI Company, Hillsboro, OR, USA) at 120 kV, with nominal magnifications between 11,500 and 39,000. The assay was performed for samples before (after dissolution) and after 3 days of incubation.

The test system of data set [4] is 46BR.1N fibroblasts. Put plainly: XTT proliferation assay, fibroblasts. The format is cell-based, human. The settings on record: for inhibition of proliferation (XTT), in words: up to 25 µg/mL. The method, then:
(§2) Immortalized human HaCaT [69, 70] keratinocytes (DKFZ, Heidelberg, Germany) and the human dermal fibroblast cell line 46BR.1N (ECACC, Sigma Aldrich, St. Louis, MO, USA) were used in the study. Cells were routinely grown in culture flasks (growth surface area 25 cm^2) in Dulbecco’s modified Eagle medium (DMEM, Sigma Aldrich, St. Louis, MO, USA), with 4500 mg/L of glucose, 584 mg/L of L-glutamine, sodium pyruvate, and sodium bicarbonate, supplemented with 10% FBS and 100 units/mL of penicillin and 100 μg/mL of streptomycin (Sigma Aldrich, St. Louis, MO, USA), under a humidified atmosphere with 5% CO2 at 37 °C. Medium was changed every 2–3 days.
(§3) Lactate dehydrogenase (LDH) activity in cell culture supernatants (Takara, Japan, cat. No. MK401) was measured to determine the cytotoxicity of the tested compounds, and the XTT assay was used to evaluate their effect on cell proliferation. Both tests were performed as previously described according to manufacturers’ instructions. Briefly, cells were seeded into 96-well plates, at a density of 5000 cells per well, in DMEM supplemented with 10% FBS. After 24 h the medium was exchanged for serum-free DMEM containing appropriate concentrations of the tested compounds. Supernatants for LDH analysis were collected after 48 h of incubation. The XTT assay was performed after 48 and 72 h of incubation.
(§4) For the analysis of the effect of the peptide fibrils on skin cells, the experiment was performed as described, but the cells were stimulated with 10 µL of the fibrils (50 µg/mL) and incubated for 48 h, when the LDH and XTT assay were then performed.
A general note: Tetrazolium dyes change colour on reduction, which living cells bring about.

A short description of data set [5]: Peptide stability in human plasma (TCA assay). The class given is in vitro ADME. The settings on record: human plasma (EDTA), 37 °C, 300 rpm, TCA 3% precipitation, RP-HPLC UV 223 nm, at least triplicates. The protocol:
Peptide stability tests were performed according to a TCA stability assay based on the method used by Nguyen et al.. Peptides were dissolved in water, mixed with human plasma* to a final concentration of 1.0 mg/mL, and incubated at 37 °C with agitation (300 rpm, Thermomixer, Eppendorf AG, Hamburg, Germany). After 0, 1, 2, 3, 6 and 24 h, 80 μL of the solution was taken and mixed with 15% TCA to obtain a final concentration of 3% (v/v). The samples were incubated in ice for 10 min and centrifuged for 10 min (12,000 rpm, Microfuge 16, Beckman Coulter, Brea, CA, USA). Supernatants were analyzed by RP-HPLC on column using a linear gradient of acetonitrile (5–100% over 15 min) with detection at 223 nm. Peptides were quantified by their peak areas relative to the initial peak areas (0 min). All stability tests were performed at least in triplicates. As control samples peptides dissolved only in water under the same conditions were used. To additionally assess the changes in the incubated samples (peptide degradation) mass spectrometry analysis was used. LC-MS experiments were performed using ESI-IT-TOF (Shimadzu, Kyoto, Japan).
* Blood was collected from healthy anonymous donors and EDTA was then used as an anticoagulant. The procedure was approved by the Independent Bioethics Commission for Research of the Medical University of Gdańsk (NKBBN/387/2014).

Data set [6] relates to HaCaT keratinocytes. Put plainly: XTT proliferation assay, keratinocytes. The class given is cell-based, human. The settings on record: for inhibition of proliferation (XTT), in words: up to 25 µg/mL. The protocol: as §2, §3, §4
The nature of data set [7]: Thioflavin T fluorescence assay. The class given is physicochemical. The settings on record: 1.0 mg/mL in PBS pH 7.4, 37 °C, orbital shaking; ThT excitation 420 nm, emission 482 nm. The protocol:
as §1
Ten microliters of peptide solution incubated under fibrillization conditions (see Fibril preparation) were mixed with 10 µL of 1.5 mM ThT in water and 90 µL of PBS pH 7.4. The fluorescence was measured on a Tecan Infinite 200Pro (Tecan Group Ltd., Männedorf, Switzerland) spectrofluorometer in 96-well plates (Costar Black®), with excitation wavelength set at 420 nm and emission in the range of 455 to 600 nm.

Data set [8] deals with 46BR.1N fibroblasts. The data set is described as follows: LDH cytotoxicity assay, fibroblasts. The class given is cell-based, human. The settings on record: non-fibrillated peptide 25 µg/mL, 48 h, serum-free DMEM; n = 16. The method, then: as §2
Lactate dehydrogenase (LDH) activity in cell culture supernatants (Takara, Japan, cat. No. MK401) was measured to determine the cytotoxicity of the tested compounds, and the XTT assay was used to evaluate their effect on cell proliferation. Both tests were performed as previously described according to manufacturers’ instructions. Briefly, cells were seeded into 96-well plates, at a density of 5000 cells per well, in DMEM supplemented with 10% FBS. After 24 h the medium was exchanged for serum-free DMEM containing appropriate concentrations of the tested compounds. Supernatants for LDH analysis were collected after 48 h of incubation. The XTT assay was performed after 48 and 72 h of incubation. […]

The subject of data set [9] is human neutrophil elastase (Sigma Aldrich), 150 nM. The data set is described as follows: human neutrophil elastase in buffer (0.1 M Tris HCl, 500 mM NaCl, 0.05% Triton X-100, 20 mM CaCl2, pH 7.5); non-fibrillated peptides. The settings on record: 37 °C, up to 30 min.
A short description of data set [10]: human plasma. The settings on record: 37 °C, up to 24 h.
The mark [11] stands for this setting: non-fibrillated peptide, 48 and 72 h, serum-free DMEM, n = 16.
The mark [12] stands for this setting: non-fibrillated peptide, 48 and 72 h.

As to `CC[C@H](C)[C@H](NC(=O)CNC(=O)[C@H](C)NC(=O)[C@H](CCC(N)=O)NC(=O)CNC(=O)CNC(=O)CNC(=O)[C@@H](NC(=O)[C@@H]1CCCN1C(=O)[C@H](C)NC(=O)[C@H](C)NC(=O)CNC(=O)CNC(=O)CNC(=O)[C@H](CCCNC(=N)N)NC(=O)[C@H](Cc1ccc(O)cc1)NC(=O)[C@@H](NC(=O)[C@H](CCCCN)NC(=O)[C@H](CC(=O)O)NC(=O)[C@H](CCCNC(=N)N)NC(C)=O)C(C)C)C(C)C)C(=O)N[C@H](C(=O)N[C@H](C(N)=O)C(C)C)C(C)C` [FC-IM] (Ac-RDKVYRGGGAAPVGGGQAGIVV-NH2), the “Degradation Yes/No by human neutrophil elastase” value in data set [1] is listed as “Yes”. Also, the “secondary structure by CD” value in data set [2] is reported as “disordered structure”. The “fibril thickness (TEM)” value in data set [3] was 10–12 nm. For the same compound, the “increase in proliferation by fibrils compared to control (XTT)” value in data set [4] (fibrillated form, 10 µL of fibrils (50 µg/mL), 48 h, three independent experiments) is “did not stimulate proliferation of either tested cell line”; in [6] (fibrillated form, 10 µL of fibrils (50 µg/mL), 48 h, not statistically significant) it was “did not stimulate proliferation of either tested cell line”. Besides, the “increase in proliferation compared to the control (XTT)” value in data set [4] (setting [11]) and in data set [6] (setting [11]) was 20–30% in each case. Also, the “inhibition of proliferation (XTT), in words” value in data set [4] (setting [12]) was “Slight inhibition of the proliferation of fibroblasts was seen at a concentration of 25 µg/mL after 72 h incubation”; in data set [6] (setting [12]), “did not decrease the proliferation of HaCaT keratinocytes”. For the same compound, the metabolised at 24 h, 1 mg/mL in data set [5] (peak area relative to 0 min, read-out: peptide loss in human plasma relative to the initial concentration) was 7%. Further, the “time course of ThT fluorescence increase (fibrillization)” value in [7] is on record as “required at least three days of incubation”.

Turning to `CC[C@H](C)[C@H](NC(=O)CNC(=O)[C@H](C)NC(=O)[C@@H](N)CCC(N)=O)C(=O)N[C@H](C(=O)N[C@H](C(N)=O)C(C)C)C(C)C` [FC] (H-QAGIVV-NH2), the “inhibition of proliferation (XTT), in words” value in [4] (setting [12]) and in data set [6] (setting [12]) was “Inhibition of the proliferation of both cell lines was not observed” each time. Further, the remaining at 24 h, 1 mg/mL in data set [5] (rapid precipitation of peptide noted, read-out: peptide remained in solution in human plasma) was 11%. Besides, in data set [8], the “cytotoxicity (LDH release)” value is reported as “about 5%”.

Take Ac-RDKVYR GGG-AAPV-GGG-QAGIVV-NH2: in [9], the cleaved bond result is given as “V-G, major, 30 min” and the fragment found entry is listed as “Ac-RDKVYRGGGAAPVG-COOH”. In addition, the not cleaved in data set [10] was 7% peptide loss after 24 h.

Turning to Ac-K GHK-GGG-AAPV-GGG-QAGIVV-NH2, the cleaved bond entry in data set [9] is on record as “V-G, major, 30 min”.

Consider Ac-GHK-GGG-AAPV-GGG-QAGIVV-NH2, for which the cleaved bond entry in data set [9] is listed as “V-G, major, 30 min”.
